Test results: PMC7083565, “In vitro metabolism, reaction phenotyping, enzyme kinetics, CYP inhibition and induction potential of ataluren” (Pharmacology Research & Perspectives, 2020)
Where two headings read alike, the source gives them in different places.

Assay: Ataluren glucuronidation kinetics, human intestinal microsomes
Format: in vitro ADME
Conditions: for CLint,u,UGT (scaled) / K m / K m, u / V max: HIM; for CLint,u,UGT (scaled): 20.6 mg protein/g tissue; for K m / K m, u / V max: mean ± SE; for K m / K m, u / V max / fraction unbound at 15 min: n = 3; for fraction unbound at 15 min / microsomal CLint: human, pH 7.5, HIM; for fraction unbound at 15 min: pooled human intestinal microsomes incubation mixture, mean ± SD, read-out: fu,inc; for microsomal CLint: pooled human intestinal microsomes, read-out: CLint,u,UGT
Experimental: Ataluren at 0.5, 2.5, 12.5, 25, 50, 100, 200, and 400 µmol/L, was incubated (n = 3) at 37°C with recombinant human UGT1A9 and with pooled microsomes from human liver, kidney, and intestine (0.025 mg protein/mL, preactivated with alamethicin at 20 µg/mL) in Tris‐HCl buffer (0.1 mol/L, pH 7.5), in the presence of 1 mmol/L EDTA, 5 mmol/L MgCl2, with or without 0.5%, 1%, or 2% BSA. The incubation (100 µL final volume with 0.5% DMSO) was started by adding an equal volume of UDPGA (5 mmol/L) in Tris‐HCl buffer (0.1 mol/L, pH 7.5). After 30 minutes incubation, the incubation mixtures were combined with 0.3 mL of an internal standard solution in acetonitrile with 1% formic acid, followed by membrane plate filtration. The filtrates were used for LC‐MS/MS analysis to quantify the formation of ataluren‐O‐1β‐acyl glucuronide. Detailed LC‐MS/MS conditions are summarized in LC‐MS/MS Analysis section. Ataluren acyl glucuronide formation rate after 30 minutes incubation was calculated using the amount of metabolite formed (pmol) divided by the protein amount in the incubation sample (0.0025 mg) and the incubation time (30 minutes). Ataluren glucuronidation kinetic parameters were determined with and without adjusting BSA binding by nonlinear regression (GraphPad Prism, 5version 5.04, GraphPad Software, Inc.) using Michaelis‐Menten equation which was the best fit compared with other models. The intrinsic clearance was calculated as CLint = Vmax/Km. In order to compare unbound intrinsic clearance by glucuronidation (CLint,u,UGT) in different tissues, CLint,u,UGT was expressed per gram of tissue by correcting the values for the microsomal protein yield, resulting in scaled CLint,u,UGT. Microsomal protein yields of 40.0, 12.8, and 20.6 mg protein/g tissue were used for hepatic, renal, and intestinal data, respectively. ^26
The high‐throughput membrane ultrafiltration method ^27 was used to determine the fraction unbound in the incubation (n = 3). Incubation mixtures and procedures were essentially the same as the above except that UDPGA (5 mmol/L) was replaced with Tris‐HCl buffer (0.1 mol/L, pH 7.5). After 15 minutes incubation, aliquot was transferred to a Millipore Multiscreen Ultracel‐10 filter plate (10 kDa molecular mass cut off; EMD Millipore). The plate was centrifuged at 37°C and 3710 g. After 30 minutes centrifugation, aliquots of ultrafiltrates and incubation mixtures prior to ultrafiltration were quenched with an internal standard solution in acetonitrile, followed by membrane plate filtration. The filtrates were used for LC‐MS/MS analysis to quantify the concentration of ataluren. The same LC‐MS/MS conditions described above are summarized in LC‐MS/MS Analysis section. The free fraction = Cu/Cm, where Cu is the concentration of ataluren in the ultrafiltrate and Cm is the concentration of ataluren in the incubation system before centrifugation. Unbound Km (Km, u) was recalculated by applying Michaelis‐Menten equation using free ataluren concentrations after correcting BSA binding at each ataluren and BSA concentration level.
Quantification of ataluren‐O‐1β‐acyl glucuronide formation was conducted on an Accela pump and a PAL autosampler equipped with a TSQ Quantum Ultra mass spectrometer (Thermo Fisher Scientific). A Waters Acquity BEH column (C18, 1.7 µm, 50 × 2.1 mm; Waters Cooperation) was used and maintained at 50°C. The mobile phases were 0.1% formic acid in water (A) and acetonitrile (B). The flow rate was 0.6 mL/min and gradient program was as follows: linear gradient from 0% B to 95% B in 0.5 minutes and hold isocratic at 95% B for 1 minute; linear gradient from 95% B to 0% B in 0.1 minutes and hold isocratic at 0% B for 0.4 minutes. TSQ Quantum Ultra mass spectrometer was equipped with a heated electrospray ionization source operated in negative‐ion mode with a vaporizer temperature of 350°C, capillary temperature of 380°C, and spray voltage of 3 kV. […]

## O=C(O)c1cccc(-c2noc(-c3ccccc3F)n2)c1 [ataluren, Ataluren]
0% BSA
  CLint,u,UGT (scaled): 0.974 mL/min/g of tissue
  K m: 15.8 ± 3.35 µM
  K m, u: 15.8 ± 3.10 µM
  V max: 747 ± 32.7 pmol/min/mg
  fraction unbound at 15 min: 1 ± 0.137
  microsomal CLint: 47.3 µL/min/mg
0.5% BSA
  CLint,u,UGT (scaled): 3.38 mL/min/g of tissue
  K m: 43.8 ± 6.88 µM
  K m, u: 4.03 ± 0.646 µM
  V max: 660 ± 28.3 pmol/min/mg
  fraction unbound at 15 min: 0.1 ± 0.0021
  microsomal CLint: 164 µL/min/mg
1% BSA
  CLint,u,UGT (scaled): 3.64 mL/min/g of tissue
  K m: 82.4 ± 11.3 µM
  K m, u: 4.02 ± 0.544 µM
  V max: 711 ± 31.2 pmol/min/mg
  fraction unbound at 15 min: 0.056 ± 0.002
  microsomal CLint: 177 µL/min/mg
2% BSA
  CLint,u,UGT (scaled): 3.39 mL/min/g of tissue
  K m: 145 ± 22.0 µM
  K m, u: 4.74 ± 0.835 µM
  V max: 767 ± 54.6 pmol/min/mg
  fraction unbound at 15 min: 0.036 ± 0.002
  microsomal CLint: 164 µL/min/mg
Human intestine microsomes, with vs without BSA
  maximal effect of BSA on CLint,u (increase): ~3.7 fold
